# Measured values: US12098216B2, “Modulators of programmed death-ligand-1 and/or programmed death-ligand-2” (Southern Research Institute, priority 2020, dated 2024)
# Square brackets hold non-standard residues; d marks the D form. Peptide text beside a SMILES is read from it. * marks the point of attachment. dPhe(4-CH2NH2) = NCc1ccc(C[C@@H](N)C(=O)O)cc1; dOrn = NCCC[C@@H](N)C(=O)O; Orn = NCCC[C@H](N)C(=O)O; Ac5c = NC1(C(=O)O)CCCC1; PhAc = O=C(Cc1ccccc1)*; Ac3c = NC1(C(=O)O)CC1; Aib = CC(C)(N)C(=O)O
# Target: PD-1
# Assay: Binding affinity (KD) of dipeptides, Table 1
row,KD,SMILES
1,No Binding,CC(C)(NC(=O)[C@@H](CCCN)NC(=O)Cc1ccc(Cl)cc1)C(N)=O [Compound 17]
2,No Binding,CC(C)(NC(=O)[C@@H](Cc1ccc(CN)cc1)NC(=O)Cc1ccccc1)C(N)=O [Compound 23] (PhAc-[dPhe(4-CH2NH2)]-[Aib]-NH2)
3,No Binding,CC(C)(NC(=O)[C@@H](CCCN)NC(=O)Cc1cc(F)c(F)c(F)c1)C(N)=O [Compound 32]
4,No Binding,Cc1c[nH]c(=O)c(NC(=O)[C@@H](CCCN)NC(=O)Cc2ccccc2)c1 [Compound 36]

# Tested on: PDL-1 and/or PDL-2 signaling
# Assay: Luciferase assay of dipeptides, Table 1
# Format: cell-based
SMILES,EC50,EC50 (μM) Luciferase
"CC(C)(NC(=O)[C@@H](CCCN)NC(=O)Cc1ccccc1)C(N)=O [Compound 1, (R)-5-amino-N-(1-amino-2-methyl-1-oxopropan-2-yl)-2-(2-phenylacetamido)pentanamide] (PhAc-[dOrn]-[Aib]-NH2)",18 µM,
CC(C)(NC(=O)[C@H](CCCN)NC(=O)Cc1ccccc1)C(N)=O [Compound 2] (PhAc-[Orn]-[Aib]-NH2),7.9 µM,
Cc1ccc(CC(=O)N[C@H](CCCN)C(=O)NC(C)(C)C(N)=O)cc1 [Compound 10],,Inactive
CC(C)(NC(=O)[C@@H](CCCN)NC(=O)C(C)(C)c1ccccc1)C(N)=O [Compound 12],,Inactive
Cn1cc(C(=O)N[C@H](CCCN)C(=O)NC(C)(C)C(N)=O)c2ccccc21 [Compound 13],1.28 µM,
CC(C)(NC(=O)[C@@H](CCCN)NC(=O)Cc1ccc(Cl)cc1)C(N)=O [Compound 17],10.3 µM,
CC(C)(NC(=O)[C@@H](Cc1ccc(CN)cc1)NC(=O)Cc1ccccc1)C(N)=O [Compound 23] (PhAc-[dPhe(4-CH2NH2)]-[Aib]-NH2),17.7 µM,
CC(C)(NC(=O)[C@@H](CCCN)NC(=O)C1(c2ccc(F)cc2)CC1)C(N)=O [Compound 25],5.03 µM,
CC(C)(NC(=O)[C@@H](CCCN)NC(=O)C(C)(C)c1ccc(F)cc1)C(N)=O [Compound 26],3.79 µM,
CC(C)(NC(=O)[C@@H](CCCN)NC(=O)Cc1ccc(F)cc1Cl)C(N)=O [Compound 27],10.2 µM,
CC(C)(NC(=O)[C@@H](CCCN)NC(=O)Cc1cc(F)c(F)c(F)c1)C(N)=O [Compound 32],28.3 µM,
CC(C)(NC(=O)[C@@H](CCCN)NC(=O)Cc1ccncc1)C(N)=O [Compound 34],3.48 µM,
CN(C)CCC[C@@H](NC(=O)Cc1ccc(F)cc1)C(=O)NC(C)(C)C(N)=O [Compound 37],23.8 µM,
CC(C)(NC(=O)[C@@H](CCCN)NC(=O)Cc1nc2ccccc2o1)C(N)=O [Compound 38],19.2 µM,
CCCC[C@@H](NC(=O)Cc1ccc(F)cc1)C(=O)NC(C)(C)C(N)=O [Compound 39],10.3 µM,
CC(C)(NC(=O)[C@H](CCCN)NC(=O)Cc1ccc(C(F)(F)F)cc1)C(N)=O [Compound 42],12.1 µM,

# The remaining lines, values ahead:
EC50,EC50 (μM) Luciferase,SMILES
0.01 µM,,CC(C)(NC(=O)[C@@H](CCCN)NC(=O)Cc1ccc(C(F)(F)F)cc1)C(N)=O [Compound 3]
0.47 µM,,CC(C)(NC(=O)[C@@H](CCCN)NC(=O)Cc1ccc(F)cc1)C(N)=O [Compound 4]
0.32 µM,,COc1ccc(CC(=O)N[C@H](CCCN)C(=O)NC(C)(C)C(N)=O)cc1 [Compound 5]
0.09 µM,,CC(C)(NC(=O)[C@@H](CCCN)NC(=O)Cc1ccc(OC(F)(F)F)cc1)C(N)=O [Compound 6]
0.28 µM,,NCCC[C@@H](NC(=O)Cc1ccccc1)C(=O)NC1(C(N)=O)CCCC1 [Compound 7] (PhAc-[dOrn]-[Ac5c]-NH2)
1.37 µM,,CC(C)(NC(=O)[C@@H](CCCCN)NC(=O)Cc1ccccc1)C(N)=O [Compound 8] (PhAc-[dK]-[Aib]-NH2)
0.05 µM,,CC(C)(NC(=O)[C@@H](CCCN)NC(=O)Cc1ccccc1F)C(N)=O [Compound 9]
1.28 µM,,CC(C)(NC(=O)[C@@H](CCCN)NC(=O)Cc1cccc(F)c1)C(N)=O [Compound 11]
0.11 µM,,NCCC[C@@H](NC(=O)Cc1ccccc1)C(=O)NC1(C(N)=O)CC1 [Compound 14] (PhAc-[dOrn]-[Ac3c]-NH2)
3.32 µM,,NCCC[C@@H](NC(=O)Cc1ccc(F)cc1)C(=O)NC1(C(N)=O)CC1 [Compound 15]
2.05 µM,,CC(C)(NC(=O)[C@@H](CCCN)NC(=O)C1(c2ccccc2)CC1)C(N)=O [Compound 22]
0.714 µM,,CC(C)(NC(=O)[C@@H](Cc1ccc(CN)cc1)NC(=O)Cc1ccc(F)cc1)C(N)=O [Compound 24]
2 µM,,CC(C)(NC(=O)[C@@H](CCCN)NC(=O)Cc1ccc(F)c(F)c1)C(N)=O [Compound 28]
2.58 µM,,CC(C)(NC(=O)[C@@H](CCCN)NC(=O)Cc1ccc(F)cc1F)C(N)=O [Compound 29]
2.1 µM,,CC(C)(NC(=O)[C@@H](CCCN)NC(=O)Cc1cc(F)cc(F)c1)C(N)=O [Compound 30]
0.596 µM,,CC(C)(NC(=O)[C@@H](CCCN)NC(=O)Cc1c(F)cccc1F)C(N)=O [Compound 31]
0.06 µM,,CC(C)(NC(=O)[C@@H](CCCN)NC(=O)Cc1c(F)cc(F)cc1F)C(N)=O [Compound 33]
0.59 µM,,Cc1c[nH]c(=O)c(NC(=O)[C@@H](CCCN)NC(=O)Cc2ccc(F)cc2)c1 [Compound 35]
1.69 µM,,Cc1c[nH]c(=O)c(NC(=O)[C@@H](CCCN)NC(=O)Cc2ccccc2)c1 [Compound 36]
0.07 µM,,CC(C)(NC(=O)[C@@H](CCCN)NC(=O)Cc1nc2ccccc2s1)C(N)=O [Compound 40]
